From PubChem BioAssay AID248 (DTP/NCI, 2004)
Several values for one entry are separate records, joined by “and”; a condition that tells them apart may be missing. Equal entries are not always repeated. Toxic doses and inconclusive results are not listed.

Tested on: L1210 leukemia ip in BDF1 mice, survival T/C
Assay: NCI In Vivo Anticancer Drug Screen. Data for tumor model L1210 Leukemia (intraperitoneal) in B6D2F1 (BDF1) mice
Conditions: endpoint: mean survival time, higher = longer survival
Method in brief: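 In this screen, tumor-bearing mice given compound are compared to those given vehicle, and their survival values are reported as a treated-to-control quotient.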

[1] = dose: 100.0 mg/kg/injection, schedule: Q01DX001 (ip), vehicle: saline
[2] = dose: 100.0 mg/kg/injection, schedule: Q01DX009 (ip), vehicle: saline
[3] = dose: 200.0 mg/kg/injection, schedule: Q01DX001 (ip), vehicle: saline
[4] = dose: 100.0 mg/kg/injection, schedule: Q01DX009 (ip), vehicle: Klucel (hydroxypropylcellulose) (HPC)
[5] = dose: 200.0 mg/kg/injection, schedule: Q01DX009 (ip), vehicle: Klucel (hydroxypropylcellulose) (HPC)
[6] = dose: 400.0 mg/kg/injection, schedule: Q01DX009 (ip), vehicle: Klucel (hydroxypropylcellulose) (HPC)
[7] = dose: 100.0 mg/kg/injection, schedule: Q04DX003 (ip), vehicle: Klucel (hydroxypropylcellulose) (HPC)
[8] = dose: 200.0 mg/kg/injection, schedule: Q04DX003 (ip), vehicle: Klucel (hydroxypropylcellulose) (HPC)
[9] = dose: 400.0 mg/kg/injection, schedule: Q04DX003 (ip), vehicle: Klucel (hydroxypropylcellulose) (HPC)
[10] = dose: 100.0 mg/kg/injection, schedule: Q04DX003 (ip), vehicle: saline
[11] = dose: 200.0 mg/kg/injection, schedule: Q04DX003 (ip), vehicle: saline
[12] = dose: 400.0 mg/kg/injection, schedule: Q01DX001 (ip), vehicle: saline
[13] = dose: 50.0 mg/kg/injection, schedule: Q01DX001 (ip), vehicle: saline
[14] = dose: 100.0 mg/kg/injection, schedule: Q04DX003 (ip), vehicle: saline with Tween-80

## O=C(/C=C/c1ccccc1)N1CCOCC1
dose: 50.0 mg/kg/injection, schedule: Q01DX009 (ip), vehicle: saline
  T/C: 95 % of control
[1]
  T/C: 97 % of control
[2]
  T/C: 97 % of control
[3]
  T/C: 95 % of control

## Cc1cc(Cl)c(OC(=O)Nc2ccccc2C(F)(F)F)cc1C
[4]
  T/C: 107 % of control
[5]
  T/C: 107 % of control
[6]
  T/C: 98 % of control

## ON=C1CCCCCCC1
dose: 12.5 mg/kg/injection, schedule: Q04DX002 (ip), vehicle: Klucel (hydroxypropylcellulose) (HPC)
  T/C: 105 % of control
dose: 25.0 mg/kg/injection, schedule: Q04DX002 (ip), vehicle: Klucel (hydroxypropylcellulose) (HPC)
  T/C: 96 % of control
dose: 50.0 mg/kg/injection, schedule: Q04DX002 (ip), vehicle: Klucel (hydroxypropylcellulose) (HPC)
  T/C: 101 % of control

## NC(N)=Nc1cccc(OCCCOc2ccccc2)c1
dose: 150.0 mg/kg/injection, schedule: Q01DX001 (ip), vehicle: saline with Tween-80
  T/C: 88 % of control
dose: 300.0 mg/kg/injection, schedule: Q01DX001 (ip), vehicle: saline with Tween-80
  T/C: 94 % of control

## COc1ccc(C(C)=O)cc1N
[4]
  T/C: 98 % of control
[7]
  T/C: 94 % of control
[5]
  T/C: 104 % of control
[8]
  T/C: 93 % of control
[6]
  T/C: 116 % of control
[9]
  T/C: 94 % of control

## N#C/C(=C\c1ccco1)C1CCC([N+](=O)[O-])CC1 (stereo not drawn)
dose: 100.0 mg/kg/injection, schedule: Q04DX002 (ip), vehicle: Klucel (hydroxypropylcellulose) (HPC)
  T/C: 104 % of control
dose: 200.0 mg/kg/injection, schedule: Q04DX002 (ip), vehicle: Klucel (hydroxypropylcellulose) (HPC)
  T/C: 104 % of control
dose: 400.0 mg/kg/injection, schedule: Q04DX002 (ip), vehicle: Klucel (hydroxypropylcellulose) (HPC)
  T/C: 93 % of control

## CC1=CC(=O)C(c2ccc(O)cc2O)=CC1=O
dose: 75.0 mg/kg/injection, schedule: Q01DX001 (ip), vehicle: other
  T/C: 101 % of control

## Cc1cc(C(=O)O)c(CN)c(=O)n1C
dose: 100.0 mg/kg/injection, schedule: Q04DX003 (ip), vehicle: water
  T/C: 102 % of control
dose: 200.0 mg/kg/injection, schedule: Q04DX003 (ip), vehicle: water
  T/C: 103 % of control
dose: 400.0 mg/kg/injection, schedule: Q04DX003 (ip), vehicle: water
  T/C: 102 % of control

## CC(C)C(=O)Nc1cccc(OC(=O)NC(C)(C)C)c1
dose: 200.0 mg/kg/injection, schedule: Q01DX001 (ip), vehicle: saline with Tween-80
  T/C: 89 % of control
dose: 400.0 mg/kg/injection, schedule: Q01DX001 (ip), vehicle: saline with Tween-80
  T/C: 87 % of control

## NC(c1ccccc1)c1ccccc1
[10]
  T/C: 104 % of control
[11]
  T/C: 95 % of control

## CCN(CC)C(=O)C1C2CCC(C2)C1C(=O)N(CC)CC (stereo not drawn)
[10]
  T/C: 100 % of control
[11]
  T/C: 100 % of control
dose: 400.0 mg/kg/injection, schedule: Q04DX003 (ip), vehicle: saline
  T/C: 100 % of control

## CCCCCCCCCCCCCC(=O)O (tested in a mixture with another compound)
dose: 5.0 mg/kg/injection, schedule: Q01DX001 (ip), vehicle: saline
  T/C: 101 % of control
dose: 10.0 mg/kg/injection, schedule: Q01DX001 (ip), vehicle: saline
  T/C: 95 % of control
dose: 20.0 mg/kg/injection, schedule: Q01DX001 (ip), vehicle: saline
  T/C: 102 % of control
dose: 40.0 mg/kg/injection, schedule: Q01DX001 (ip), vehicle: saline
  T/C: 102 % of control
dose: 80.0 mg/kg/injection, schedule: Q01DX001 (ip), vehicle: saline
  T/C: 90 % of control
[1]
  T/C: 98 % of control

## O=C1c2c(O)cccc2C(C2OC(CO)C(O)C(O)C2O)c2cc(CO)cc(O)c21 (stereo not drawn)
[1]
  T/C: 98 % of control
[3]
  T/C: 98 % of control
[12]
  T/C: 104 % of control

## CCOC(=O)c1[nH]nc(CC)c1O
dose: 50.0 mg/kg/injection, schedule: Q04DX003 (ip), vehicle: gum acacia
  T/C: 110 % of control
dose: 100.0 mg/kg/injection, schedule: Q01DX009 (ip), vehicle: gum acacia
  T/C: 96 % of control
dose: 100.0 mg/kg/injection, schedule: Q04DX003 (ip), vehicle: gum acacia
  T/C: 98 % of control
dose: 200.0 mg/kg/injection, schedule: Q01DX009 (ip), vehicle: gum acacia
  T/C: 92 % of control
dose: 200.0 mg/kg/injection, schedule: Q04DX003 (ip), vehicle: gum acacia
  T/C: 103 % of control
dose: 400.0 mg/kg/injection, schedule: Q01DX009 (ip), vehicle: gum acacia
  T/C: 105 % of control
dose: 400.0 mg/kg/injection, schedule: Q04DX003 (ip), vehicle: gum acacia
  T/C: 108 % of control

## COc1ccc(C2NC(=O)NC2=O)cc1 (stereo not drawn)
[13]
  T/C: 105 % of control
[1]
  T/C: 105 % of control
[14]
  T/C: 108 % of control
[3]
  T/C: 102 % of control
dose: 200.0 mg/kg/injection, schedule: Q04DX003 (ip), vehicle: saline with Tween-80
  T/C: 103 % of control
[12]
  T/C: 111 % of control
dose: 400.0 mg/kg/injection, schedule: Q04DX003 (ip), vehicle: saline with Tween-80
  T/C: 92 % of control

## CC(=O)n1cc(F)c(=O)[nH]c1=O
dose: 2.1 mg/kg/injection, schedule: Q01DX009 (ip), vehicle: saline with Tween-80
  T/C: 108 % of control
dose: 3.1 mg/kg/injection, schedule: Q01DX009 (ip), vehicle: saline with Tween-80
  T/C: 111 % of control
dose: 6.25 mg/kg/injection, schedule: Q04DX003 (ip), vehicle: saline
  T/C: 108 % of control
dose: 12.5 mg/kg/injection, schedule: Q04DX003 (ip), vehicle: saline
  T/C: 115 % of control
dose: 25.0 mg/kg/injection, schedule: Q01DX009 (ip), vehicle: saline
  T/C: 152 % of control
dose: 25.0 mg/kg/injection, schedule: Q04DX003 (ip), vehicle: saline
  T/C: 123 % of control
dose: 50.0 mg/kg/injection, schedule: Q04DX003 (ip), vehicle: saline
  T/C: 151 % of control
[2]
  T/C: 101 % of control
[14]
  T/C: 188 % of control
[10]
  T/C: 207 % of control
dose: 150.0 mg/kg/injection, schedule: Q01DX001 (ip), vehicle: saline
  T/C: 152 % of control
[11]
  T/C: 113 % of control
dose: 300.0 mg/kg/injection, schedule: Q01DX001 (ip), vehicle: saline
  T/C: 151 % of control

## CCOC(=O)C(C)Oc1ccccc1[N+](=O)[O-] (stereo not drawn)
[4]
  T/C: 93 % of control
[5]
  T/C: 102 % of control
[6]
  T/C: 102 % of control

## O=[N+]([O-])c1cccc2cn[nH]c12
dose: 25.0 mg/kg/injection, schedule: Q04DX002 (ip), vehicle: saline with Tween-80
  T/C: 100 % of control
dose: 50.0 mg/kg/injection, schedule: Q04DX002 (ip), vehicle: saline with Tween-80
  T/C: 110 % of control
dose: 100.0 mg/kg/injection, schedule: Q04DX002 (ip), vehicle: saline with Tween-80
  T/C: 107 % of control and 89 % of control

## S=C(c1ccccc1)N(c1ccccc1)c1ccc2ccccc2c1
[7]
  T/C: 98 % of control
[8]
  T/C: 95 % of control
[9]
  T/C: 94 % of control

## Fc1ccccc1-c1nnc(-c2ccccc2)o1
[7]
  T/C: 98 % of control
[8]
  T/C: 113 % of control
[9]
  T/C: 103 % of control

## CCS(=O)(=O)C(CCC(S(=O)(=O)CC)S(=O)(=O)CC)S(=O)(=O)CC
[1]
  T/C: 110 % of control
[3]
  T/C: 96 % of control
[12]
  T/C: 102 % of control

## OCC1OC(n2cnc3c(=S)nc[nH]c32)CC1O (stereo not drawn)
dose: 8.0 mg/kg/injection, schedule: Q01DX015 (ip), vehicle: saline
  T/C: 103 % of control
dose: 16.0 mg/kg/injection, schedule: Q01DX015 (ip), vehicle: saline
  T/C: 108 % of control
dose: 32.0 mg/kg/injection, schedule: Q01DX015 (ip), vehicle: saline
  T/C: 115 % of control
[13]
  T/C: 104 % of control
dose: 64.0 mg/kg/injection, schedule: Q01DX015 (ip), vehicle: saline
  T/C: 122 % of control
[1]
  T/C: 106 % of control
dose: 178.0 mg/kg/injection, schedule: Q01DX001 (ip), vehicle: saline
  T/C: 113 % of control
dose: 180.0 mg/kg/injection, schedule: Q01DX015 (ip), vehicle: saline
  T/C: 156 % of control
[3]
  T/C: 115 % of control
dose: 267.0 mg/kg/injection, schedule: Q01DX001 (ip), vehicle: saline
  T/C: 108 % of control
dose: 300.0 mg/kg/injection, schedule: Q01DX015 (ip), vehicle: saline
  T/C: 154 % of control and 156 % of control
[12]
  T/C: 121 % of control
dose: 600.0 mg/kg/injection, schedule: Q01DX015 (ip), vehicle: saline
  T/C: 163 % of control

## CCC(=O)c1ccc(OC(=O)Nc2ccc(C)c(NC(=O)Oc3ccc(C(=O)CC)cc3)c2)cc1
dose: 100.0 mg/kg/injection, schedule: Q01DX009 (ip), vehicle: other
  T/C: 107 % of control
dose: 200.0 mg/kg/injection, schedule: Q01DX009 (ip), vehicle: other
  T/C: 100 % of control
